Laboratory results taken from PMC6646794 (Biochimica et Biophysica Acta. Molecular Cell Research, 2019).
Read-outs that look alike come from different tables or passages of the source.

Columns and labels:
NudT9H domain = experiment: Thermal unfolding of NudT9H by nDSF; type: binding, human; conditions: NudT9H with ADPR versus without
Protocol: The intrinsic fluorescence at 330 and 350 nm after excitation at 280 nm is used to monitor the fluorescence change upon heat unfolding. […] Buffer conditions were 25 mM Tris (pH 7.4), 150 mM NaCl, 2 mM CaCl2, 10% (v/v) glycerol. The first derivative of the unfolding curves was used to determine the transition midpoint. Simultaneously, protein aggregation was followed by light scattering.

wild-type TRPM2 = experiment: Whole cell patch-clamp, wild-type TRPM2 in HEK293 cells; type: cell-based, human; conditions: for whole cell current at 37 °C / whole cell current at room temperature: 200 nM free Ca2+, maximum current at +15 mV, median, 8–13 cells per condition; for effect of raising temperature to 37 °C on current: one-way ANOVA, Bonferroni
Protocol: (§1) HEK293 cells were kept at 37 °C and 5% CO2 in DMEM with 4.5 g/l glucose and GlutaMax-I (Gibco) supplemented with 10% (v/v) fetal bovine serum (Biochrom). Cells were split 1:10 to 1:20 twice a week.
For patch clamp experiments wild type HEK293 cells were transfected with expression vectors for either wild type TRPM2 or TRPM2 W1355A/I1368A 24 h before the experiments. To generate the transfection complex 2.5 μg of TRPM2 expression vector and 5 μl jetPEI reagent (PolyPlus Transfection, Strasbourg, France) were incubated for 30 min in a total volume of 250 μl (150 mM NaCl). Cells were detached from the culture bottle and adjusted to a density of 2.5 × 10^5 cells/ml. After addition of the transfection complex cells were seeded at low density to 35 mm cell culture dishes. Directly before the experiment the culture medium was replaced by bath solution (in mM: 140 N‑methyl‑D‑glucamine (NMDG), 5 KCl, 3.3 MgCl2, 1 CaCl2, 5 D‑glucose, 10 HEPES, adjusted to pH 7.4 with HCl). The replacement of Na^+ in the bath solution by NMDG (for which TRPM2 is impermeable) prevents cell rupture due to excessive current and the characteristic IV curve helps to distinguish activation of the nonselective cation channel from cells becoming leaky. […] The intracellular solution contains 200 nM free Ca^2+ (calculated using MaxChelator, http://maxchelator.stanford.edu/CaEGTA-NIST.htm). Whole cell currents were recorded using a HEKA EPC-10 amplifier and PatchMaster software (HEKA Elektronik, Lamprecht, Germany). To record TRPM2 activity, repetitive voltage ramps from −85 mV to +20 mV over 140 ms were applied every 5 s for 450 s. Before and in between ramps cells were clamped at −50 mV. Series resistance compensation was set to 70%. For temperature control the 35 mm dishes were placed inside an open culture dish incubator (DH-35i, Warner Instruments) connected to a single channel heater controller (TC-324C, Warner Instruments). Cells were continuously perfused at a flow rate of 0.3 ml/min with bath solution pre-warmed in a water bath.
For statistical analysis GraphPad Prism (v7.04 and v8.0.1; GraphPad Software) was used. Currents obtained from whole cell recordings tend to be positively skewed and were therefore log-transformed to achieve normality. After transformation all groups were normally distributed as assessed by D'Agostino & Pearson normality test. Data were tested by one-way ANOVA. p values from post-hoc comparisons between groups were adjusted for multiple comparison using Bonferroni correction. A significance level of α = 0.05 was adopted.

TRPM2 W1355A I1368A = experiment: Whole cell patch-clamp, TRPM2 W1355A I1368A in HEK293 cells; type: cell-based, human
Protocol: as §1
The mutations W1355A and I1368A were inserted into the eukaryotic expression vector for TRPM2 (pIRES2-EGFP-TRPM2) by two sequential rounds of QuikChange mutagenesis using the following primer pairs: for W1355A: 5′-[…]-3′ and 5′-[…]-3′, for I1368A: 5′- […]-3′ and 5′-[…]-3′. The full open reading frame was confirmed by DNA sequencing (Eurofins MWG Operon, Ebersberg, Germany).
For patch clamp experiments wild type HEK293 cells were transfected with expression vectors for either wild type TRPM2 or TRPM2 W1355A/I1368A 24 h before the experiments. […] The intracellular solution contains 200 nM free Ca^2+ (calculated using MaxChelator, http://maxchelator.stanford.edu/CaEGTA-NIST.htm). Whole cell currents were recorded using a HEKA EPC-10 amplifier and PatchMaster software (HEKA Elektronik, Lamprecht, Germany). […]
For statistical analysis GraphPad Prism (v7.04 and v8.0.1; GraphPad Software) was used. […] After transformation all groups were normally distributed as assessed by D'Agostino & Pearson normality test. […]

TRPM2 = conditions: cited from earlier work
[1] = room temperature, 100 μM agonist in pipette
[2] = wild-type TRPM2, 100 μM agonist in pipette, room temperature to 37 °C

Molecule	stabilizing effect on NudT9H (NudT9H domain)	increase of current from room temperature to 37 °C (wild-type TRPM2; 100 μM agonist in pipette, room temperature to 37 °C, median values)	whole cell current at 37 °C (wild-type TRPM2; 100 μM agonist in pipette)	whole cell current at room temperature (wild-type TRPM2; [1])	effect of raising temperature to 37 °C on current (wild-type TRPM2; [2])	effect of raising temperature to 37 °C on current (TRPM2 W1355A I1368A; 100 μM agonist in pipette, room temperature to 37 °C, one-way ANOVA, Bonferroni)	TRPM2 agonism (TRPM2; ref [20])	Ca2+ dependence of TRPM2 activation by ADPR (TRPM2; removal of both intra- and extracellular Ca2+, ref [15])	effect of temperature >35 °C on evoked TRPM2 current (TRPM2; temperatures >35 °C, ref [17])	current compared to ADPR (wild-type TRPM2; wild-type TRPM2, 100 μM in pipette, room temperature, compared with 100 μM ADPR)	current compared to ADPR (TRPM2 W1355A I1368A; 100 μM in pipette, room temperature and 37 °C)	TRPM2 current compared with ADPR (TRPM2; basal Ca2+ concentrations, ref [22])	Ca2+ sensitivity of TRPM2 activation (TRPM2; ref [22])	TRPM2 agonism (TRPM2; ref [21])
Adenosine diphosphate ribose [ADPR]	ruling out a stabilizing effect of ADPR on NudT9H	> 10 fold	2.2 nA	150 pA	significantly increased	no significant increase	activates the channel	completely prevents activation of the channel by ADPR	significantly potentiates the current evoked by ADPR					
Nc1ncnc2c1ncn2[C@H]1C[C@H](O)[C@@H](COP(=O)(O)OP(=O)(O)OC[C@H]2OC(O)[C@H](O)[C@@H]2O)O1 (some centres unmarked) [2′-deoxy-ADPR, 2′-deoxy-adenosine diphosphate (ADP)-ribose]			1.4 nA	4.5 nA	did not significantly increase					significantly higher at room temperature	did not significantly differ from that with ADPR	elicits much higher TRPM2 currents than ADPR	less sensitive to Ca^2+	
ADP-ribose-2′-phosphate [2′-P-ADPR]														acts as partial agonist
